{"source": "paper PMC5538626", "about": "“Structural and functional analysis of the GABARAP interaction motif (GIM)” (EMBO Reports, 2017)", "key": {"GABARAP proteins": {"molecular_target": "GABARAP proteins", "assay": "ITC, GABARAP proteins (range)", "assay_type": "binding, human", "procedure": "All titration experiments were performed at 25°C using a VP‐ITC microcalorimeter (Malvern Instruments Ltd, UK). The ITC data were analysed with the ITC‐Origin 7.0 software with a “one‐site” binding model. The peptides at concentrations of 0.4 mM were titrated into 0.020 mM LC3 and GABARAP proteins in 26 steps. The protein and peptide concentrations were calculated from the UV absorption at 280 nm by NanoDrop spectrophotometer (Thermo Fisher Scientific, DE, USA)."}, "GABARAP": {"molecular_target": "T1, GABARAP (Homo sapiens, UniProt O95166)", "T1 construct": "modified Ub-leader (ubiquitin fusion leader) (N); made in house; host or cells: E. coli NEB T7 Express", "T1 sequence (O95166 whole entry, the tested form may be a part)": "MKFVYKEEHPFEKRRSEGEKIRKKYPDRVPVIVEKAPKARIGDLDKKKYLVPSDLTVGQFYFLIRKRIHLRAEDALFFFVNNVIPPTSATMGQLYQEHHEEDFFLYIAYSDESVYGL", "assay": "ITC titration of PLEKHM1-LIR peptides into GABARAP", "assay_type": "binding", "conditions": "ITC; for ΔH: VP-ITC, one-site model, 0.4 mM peptide into 0.020 mM protein, 50 mM Na2HPO4, 100 mM NaCl; for K D of GABARAP lower compared to LC3B / specificity GABARAP over LC3B: GABARAP vs LC3B", "procedure": "(§1) The genes for the truncated LC3A^2–121, LC3C^8–125, GABARAP^2–117 and GABARAP‐L1^2–117 proteins were cloned into pET30ΔSE vector between the BamHI and XhoI sites using previously established protocols 38. The chimeric constructs of the PLEKHM1‐LIR attached to the LC3A, GABARAP and GABARAP‐L1 proteins were prepared by inserting the oligonucleotide sequence corresponding to the PLEKHM1‐LIR peptide (P^629[…]^638) and glycine–serine linker into the BamHI site of the pET30ΔSE vector, placing the PLEKHM1‐LIR at the N‐terminal of the mature chimeric protein (similar to 31, 38). For the expression of human LC3 and GABARAP proteins for ITC and NMR experiments, plasmids with appropriate modified Ub‐leaders in pET vectors were used 39. Gene, encoding PLEKHM1‐LIR peptide, was ordered as synthetic oligonucleotides (Eurofins Genomics GmbH) and cloned into the pET39_Ub63_ vector 39 by NcoI–BamHI restriction sites. After TEV cleavage, the resulting peptide has the amino acid sequence GAMG‐P^629[…]^642, where the first four residues (GAMG) are the cloning artefact.\n(§2) The chimeric constructs were expressed as a His‐tag fusion protein in E. coli BL21(DE3) cells. The cells were induced with 0.3 mM IPTG at OD600 0.6 for 16 h at 26°C. The cell pellets were lysed using mechanical sonication in lysis buffer (20 mM Tris–HCl pH 9.0, 100 mM NaCl, 10 mM imidazole, supplemented with 0.1% Triton X‐100). The proteins were purified using Ni‐NTA beads (GE Healthcare) and the His‐tag was cleaved using thrombin (Invitrogen) at room temperature for 16 h. The last step was gel filtration chromatography using a Superdex S200/300 GL column (GE Healthcare). The proteins were concentrated using spin concentrators (Vivaspin). For ITC and NMR studies, the non‐labelled and stable isotopes labelled LC3 and GABARAP proteins were obtained based on the protocols described elsewhere 30, 39. Here, E. coli NEB T7 Express culture transformed with corresponding plasmids were grown till OD600 nm = 1.0 and protein expression was induced with 0.2 mM IPTG. The cultures were incubated at 25°C for 8–12 h before cell harvesting. Isolation and purification procedures were similar to those reported in Ref. 22, 40. Before experiments, all proteins and peptides were equilibrated with a buffer containing 50 mM Na2HPO4, 100 mM NaCl at pH 7.0, and supplied with 5 mM protease inhibitor cocktail.\n(§3) The protocol for preparation of non‐labelled and ^13C,^15N‐labelled PLEKHM1‐LIR peptide was slightly modified to achieve highest yield of the peptide. The 50 ml M9 culture was inoculated with NEB T7 cell transformed with pET39_Ub63‐PLEKHM1‐LIR plasmid and grown overnight at 37°. The collected cells were resuspended in 2 l of either LB or M9 media contained 1.5 g ^15N‐labelled NH4Cl and 3.0 g of ^13C‐labelled glucose. The cultures were grown at 37° till A(600 nm) = 0.9 and supplied with 1 mM of IPTG to induce Ub63‐PLEKHM1‐LIR overexpression (3 h at 37°). After that cells were harvested by centrifugation, re‐suspended in buffer contained 50 mM Tris–HCl pH = 7.9, 200 mM NaCl, 5% glycerol, 0.1 mg/ml DNase A and 4 mM protease inhibitor cocktail. After cell lysis by French press, debris was removed by centrifugation and clear supernatant was applied onto the column contained Ni‐NTA Sepharose equilibrated with the loading buffer (50 mM Tris–HCl pH = 7.9, 250 mM NaCl, 1% glycerol and 20 mM imidazole). Elution was performed with 400 mM imidazole in the same buffer. An aliquot of pure Ub63‐PLEKHM1‐LIR fractions was further purified by gel filtration on Superdex75 26 × 60 column for control ITC and analytical size exclusion chromatography experiments, remaining fusion protein was processed with the TEV‐protease and PLEKHM1‐LIR peptide was purified to 95% purity by reverse Ni‐NTA chromatography and followed gel filtration on Superdex75 26 × 60 column. Peak maximum of peptide was detected at […] (void volume 115 ml). Pure peptide was concentrated in Amicon concentrators with cut‐off of 3 kDa (> 95% retention). […]"}, "LC3C": {"molecular_target": "T2, LC3C (Homo sapiens, UniProt Q9BXW4)", "T2 construct": "modified Ub-leader (ubiquitin fusion leader) (N); made in house; host or cells: E. coli NEB T7 Express", "T2 sequence (Q9BXW4 whole entry, the tested form may be a part)": "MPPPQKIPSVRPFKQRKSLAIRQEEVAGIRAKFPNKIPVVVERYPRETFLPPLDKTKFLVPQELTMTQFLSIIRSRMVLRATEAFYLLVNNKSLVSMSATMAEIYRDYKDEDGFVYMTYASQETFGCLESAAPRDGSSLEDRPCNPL", "assay": "ITC titration of PLEKHM1-LIR peptide into LC3C", "assay_type": "binding", "conditions": "25°C, pH 7.0", "procedure": "as §1, §2, §3"}, "GABARAP-L1": {"molecular_target": "T3, GABARAP-L1 (Homo sapiens, UniProt Q9H0R8)", "T3 construct": "modified Ub-leader (ubiquitin fusion leader) (N); made in house; host or cells: E. coli NEB T7 Express", "T3 sequence (Q9H0R8 whole entry, the tested form may be a part)": "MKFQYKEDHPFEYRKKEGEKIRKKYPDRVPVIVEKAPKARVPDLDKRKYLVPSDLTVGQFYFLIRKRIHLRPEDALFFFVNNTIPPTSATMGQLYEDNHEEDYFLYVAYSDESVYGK", "assay": "ITC titration of PLEKHM1-LIR peptide into GABARAP-L1", "assay_type": "binding", "conditions": "25°C, pH 7.0", "procedure": "as §1, §2, §3"}, "[1]": {"conditions": "25°C, pH 7.0, listed as PLEKHM1-LIR"}, "[2]": {"conditions": "VP-ITC, one-site model, 0.4 mM peptide into 0.020 mM protein, 50 mM Na2HPO4, 100 mM NaCl"}}, "note": "Ends that are not written are not given here.", "data": [{"sequence": "GAMGPQQEDEWVNVQYPD [PLEKHM1‐LIR WT]", "values": [{"measurement": "Kd", "setting": "GABARAP proteins", "result": "550 to 770", "unit": "nM"}, {"measurement": "ΔH", "setting": "GABARAP; 25°C, pH 7.0", "result": "-10.6 ± 0.1", "unit": "kcal/mol"}, {"measurement": "ΔH", "setting": "GABARAP; [1]", "result": "-10.60 ± 0.1", "unit": "kcal/mol"}, {"measurement": "KA", "setting": "GABARAP; 25°C, pH 7.0", "result": "1.8 ± 0.1 ×10^6 M^−1"}, {"measurement": "N (number of binding sites)", "setting": "GABARAP; 25°C, pH 7.0", "result": "1.00 ± 0.01"}, {"measurement": "ΔG", "setting": "GABARAP; 25°C, pH 7.0", "result": -8.54, "unit": "kcal/mol"}, {"measurement": "ΔS", "setting": "GABARAP; 25°C, pH 7.0", "result": "−6.92", "unit": "cal mol^−1 K^−1"}, {"measurement": "−T × ΔS", "setting": "GABARAP; 25°C, pH 7.0", "result": "+2.06 kcal mol^−1"}, {"measurement": "KA", "setting": "GABARAP; [1]", "result": "1.8±0.1 ×10^6 M^−1"}, {"measurement": "ΔG", "setting": "GABARAP; [1]", "result": -8.54, "unit": "kcal/mol"}, {"measurement": "ΔS", "setting": "GABARAP; [1]", "result": -6.92, "unit": "cal mol^−1 K^−1"}, {"measurement": "K D of GABARAP lower compared to LC3A (times)", "setting": "GABARAP; GABARAP vs LC3A", "result": "approximately eight"}, {"measurement": "K D of GABARAP lower compared to LC3B / specificity GABARAP over LC3B", "setting": "GABARAP", "result": 11, "unit": "fold"}, {"measurement": "K D of GABARAP lower compared to LC3B / specificity GABARAP over LC3B", "setting": "GABARAP; listed as PLEKHM1‐LIR peptide", "result": "approximately 11 fold"}, {"measurement": "ΔH", "setting": "LC3C; [2]", "result": "-8.3 ± 0.2", "unit": "kcal/mol"}, {"measurement": "KA", "setting": "LC3C", "result": "0.29 ± 0.02 ×10^6 M^−1"}, {"measurement": "N (number of binding sites)", "setting": "LC3C", "result": "0.99 ± 0.02"}, {"measurement": "ΔG", "setting": "LC3C", "result": -7.48, "unit": "kcal/mol"}, {"measurement": "ΔS", "setting": "LC3C", "result": "−2.83", "unit": "cal mol^−1 K^−1"}, {"measurement": "−T × ΔS", "setting": "LC3C", "result": "+0.84 kcal mol^−1"}, {"measurement": "ΔH", "setting": "GABARAP-L1; [2]", "result": "-7.8 ± 0.1", "unit": "kcal/mol"}, {"measurement": "KA", "setting": "GABARAP-L1", "result": "1.3 ± 0.1 ×10^6 M^−1"}, {"measurement": "N (number of binding sites)", "setting": "GABARAP-L1", "result": "1.00 ± 0.01"}, {"measurement": "ΔG", "setting": "GABARAP-L1", "result": -8.35, "unit": "kcal/mol"}, {"measurement": "ΔS", "setting": "GABARAP-L1", "result": "+1.94 cal mol^−1 K^−1"}, {"measurement": "−T × ΔS", "setting": "GABARAP-L1", "result": -0.58, "unit": "kcal/mol"}]}]}
